Results as given in patent publication US20140235774A1, “FLUORESCENT COMPOUND, METHOD FOR PRODUCING THE SAME, AND FLUORESCENT RESIN COMPOSITION” (Shin-Etsu Chemical Co., Ltd., priority 2013, published 2014).
In brackets after ≈: the same amount, converted by molar mass.

Legend:
Format in all cases: physicochemical
[1] = Fluorescent spectrum in solvent
Experimental: (§1) The ultraviolet-visible absorption spectrum and the fluorescent spectrum of Compound 1 were measured in ethanol. The longest absorption maximum wavelength was 359 nm, the molar absorbance coefficient was 6.50×10^4, and the maximum fluorescent wavelength was 410 nm (excitation wavelength: 359 nm).
(§2) The ultraviolet-visible absorption spectrum and the fluorescent spectrum of Compound 2 were measured in ethanol. The longest absorption maximum wavelength was 359 nm, the molar absorbance coefficient was 7.88×10^4, and the maximum fluorescent wavelength was 410 nm (excitation wavelength: 359 nm).
as §1, with “3” for “1”, “tetrahydrofuran.” for “ethanol.”, “363” for “359”, “2.65×10^4,” for “6.50×10^4,”, “413” for “410”
as §1, with “4” for “1”, “tetrahydrofuran.” for “ethanol.”, “363” for “359”, “2.83×10^4,” for “6.50×10^4,”, “413” for “410”, “363 nm)” for “359 nm).”

[2] = Ultraviolet-visible absorption spectrum in solvent
Experimental: as §1, §2
as §1, with “3” for “1”, “tetrahydrofuran.” for “ethanol.”, “363” for “359”, “2.65×10^4,” for “6.50×10^4,”, “413” for “410”
as §1, with “4” for “1”, “tetrahydrofuran.” for “ethanol.”, “363” for “359”, “2.83×10^4,” for “6.50×10^4,”, “413” for “410”, “363 nm)” for “359 nm).”

[3] = Solubility in transparent silicone resin SIM-360 base compound (portion-wise addition until transparent); conditions: for solubility in the SIM-360 base compound: room temperature, with stirring
Experimental: Into a glass vial, 10.1 mg of Compound 1 produced in Example 1 was weighed and added with a transparent silicone resin, the SIM-360 base compound (produced by Shin-Etsu Chemical Co., Ltd.) portion-wise at room temperature with stirring. Dissolution was determined when the solution turned transparent. The solubility was calculated to be 1 mmol/L. To this mixture, 10% by mass of a curing agent was added on the basis of the base compound and mixed. After defoaming, the mixture was heated at 150° C. for 30 minutes to be cured, giving a fluorescent silicone resin composition. It was possible to change the concentration of Compound 1 freely as long as the concentration was less than or equal to the above-described concentration.

[4] = in ethanol, excitation wavelength 359 nm
[5] = in tetrahydrofuran, excitation wavelength 363 nm

Compound	maximum fluorescent wavelength [1, 4] [nm]	longest absorption maximum wavelength ([2]; in ethanol) [nm]	molar absorbance coefficient ([2]; in ethanol)	solubility in the SIM-360 base compound [3] [µM]	maximum fluorescent wavelength [1, 5] [nm]	longest absorption maximum wavelength ([2]; in tetrahydrofuran) [nm]	molar absorbance coefficient ([2]; in tetrahydrofuran)	solubility in the SIM-360 base compound (result in words) ([3]; measured as in Example 6)
Cc1ccc(N(c2ccc(C)cc2)c2ccc(-c3ccc(N(c4ccc(-c5ccc(N(c6ccc(C)cc6)c6ccc(C)cc6)cc5)cc4)c4cccc([Si](C)(O[Si](C)(C)C)O[Si](C)(C)C)c4)cc3)cc2)cc1 [Compound 1, N,N-bis[4′-(N′,N′-di-4-tolylamino)biphenyl-4-yl]-3-(1-trimethylsiloxy-1,3,3,3-tetramethyldisiloxan-1-yl)aniline]	410	359	6.50×10^4	1000 (≈ 1010 µg/mL)				
C[Si](C)(C)O[Si](C)(O[Si](C)(C)C)c1cccc(N(c2ccccc2)c2ccc(-c3ccc(N(c4ccccc4)c4ccc(-c5ccc(N(c6ccccc6)c6ccc(-c7ccc(N(c8ccccc8)c8cccc([Si](C)(O[Si](C)(C)C)O[Si](C)(C)C)c8)cc7)cc6)cc5)cc4)cc3)cc2)c1 [Compound 2, N,N′-bis[phenyl-3-(1-trimethylsoxy-1,3,3,3-tetramethyldisiloxan-1-yl)phenylaminobiphenyl-4′-yl]-N,N-diphenylbenzidine]	410	359	7.88×10^4	500 (≈ 708 µg/mL)				
C[Si](C)(C)O[Si](C)(O[Si](C)(C)C)c1cccc(N(c2ccc(-c3ccc(N(c4ccccc4)c4ccc(-c5ccc(N(c6ccccc6)c6ccccc6)cc5)cc4)cc3)cc2)c2ccc(-c3ccc(N(c4ccccc4)c4ccc(-c5ccc(N(c6ccccc6)c6ccccc6)cc5)cc4)cc3)cc2)c1 [Compound 3, N,N-bis[4′-(N′-phenyl-N′-4′-diphenylaminobiphenyl-4-yl)biphenyl-4-yl]-3-(1-trimethylsiloxy-1,3,3,3-tetramethyldisiloxan-1-yl)aniline]				100 (≈ 144 µg/mL)	413	363	2.65×10^4	
C[Si](C)(C)O[Si](C)(C)c1cccc(N(c2ccc(-c3ccc(N(c4ccccc4)c4ccc(-c5ccc(N(c6ccccc6)c6ccccc6)cc5)cc4)cc3)cc2)c2ccc(-c3ccc(N(c4ccccc4)c4ccc(-c5ccc(N(c6ccccc6)c6ccccc6)cc5)cc4)cc3)cc2)c1 [Compound 4, N,N-bis[4′-(N′-phenyl-N′-4′-diphenylaminobiphenyl-4-yl)biphenyl-4-yl]-3-(pentamethyldisiloxan-1-yl)aniline]				100 (≈ 136 µg/mL)	413	363	2.83×10^4	
Cc1cccc(N(c2ccc(-c3ccc(N(c4ccccc4)c4ccc(-c5ccc(N(c6ccccc6)c6ccc(-c7ccc(N(c8cccc(C)c8)c8cccc(C)c8)cc7)cc6)cc5)cc4)cc3)cc2)c2cccc(C)c2)c1 [Compound 6, reference compound]								not dissolved at all
